DBAASP
Converted amounts (≈) assume the structure as drawn.

What was measured:
Experiment in all cases: ≥ marks a high value that may be exact or a test limit, other limits are often not marked, values filed in µg/mL are converted to µM
[1] = system: Bacillus subtilis KCTC 1918
[2] = system: Candida albicans TIMM 1768
[3] = system: Pseudomonas aeruginosa KCTC 1637
[4] = system: Saccharomyces cerevisiae KCTC 7296
[5] = system: Salmonella typhimurium KCTC 1926
[6] = system: Staphylococcus epidermidis KCTC 3096
[7] = system: Trichosporon beigelii KCTC 7707
[8] = system: Bacillus megaterium KCTC 1096
[9] = system: Escherichia coli KCTC 1682
Proteus vulgaris = system: Proteus vulgaris
[10] = system: Staphylococcus aureus KCTC 1621
Bacillus subtilis 168 = system: Bacillus subtilis 168
Candida albicans SC5314 = system: Candida albicans SC5314
Candida krusei ATCC 6258 = system: Candida krusei ATCC 6258
[11] = system: Candida parapsilosis ATCC 22019
[12] = system: Candida tropicalis ATCC 750
[13] = system: Cryptococcus neoformans ATCC 208821
Escherichia coli BL21 = system: Escherichia coli BL21
Escherichia coli ESBL = system: Escherichia coli ESBL
Staphylococcus aureus = system: Staphylococcus aureus
[14] = system: Streptococcus pyogenes KCTC 3096
Alternaria alternata = system: Alternaria alternata
Botrytis cinerea = system: Botrytis cinerea
Cladosporium herbarum = system: Cladosporium herbarum
[15] = system: Clavibacter michiganensis subsp. michiganensis DSM 46294
[16] = system: Pectobacterium carotovorum subsp. carotovorum DSM 30168
[17] = system: Pseudomonas corrugata DSM 7228
[18] = system: Pseudomonas syringae pv. syringae DSM 10604
[19] = system: Pseudomonas syringae pv. tomato DC3000
[20] = system: Xanthomonas vesicatoria DSM 50861
[21] = system: Aspergillus niger CECT 2694
[22] = system: Fusarium oxysporum f. sp. lycopersici ATCC 201829
[23] = system: Penicillium expansum EPS 26
[24] = system: Rhizopus stolonifer CECT 2344
Bacillus megaterium = system: Bacillus megaterium
Enterobacter cloacae = system: Enterobacter cloacae
Escherichia coli B = system: Escherichia coli B
Klebsiella pneumoniae = system: Klebsiella pneumoniae
[25] = system: Salmonella enterica subsp. enterica serovar Enteritidis
Salmonella typhimurium = system: Salmonella typhimurium
[26] = system: Staphylococcus haemolyticus
[27] = system: Staphylococcus aureus 90857

## CC(C)C[C@H](NC(=O)[C@H](CCCCN)NC(=O)[C@H](CC(C)C)NC(=O)[C@H](CCCCN)NC(=O)[C@H](CC(C)C)NC(=O)[C@@H]1CCCN1C(=O)[C@H](CCCCN)NC(=O)[C@H](CCCCN)NC(=O)[C@H](CC(C)C)NC(=O)[C@H](CC(C)C)NC(=O)[C@@H](N)CCCCN)C(N)=O [KLLKKPLKLKL]
[1]
  MIC: 12.5 µM (≈ 16.5 µg/mL)
[2]
  MIC: 25 µM (≈ 33 µg/mL)
[3]
  MIC: 6.3 µM (≈ 8.32 µg/mL)
[4]
  MIC: 25 µM (≈ 33 µg/mL)
[5]
  MIC: 0.8 µM (≈ 1.06 µg/mL)
[6]
  MIC: 6.3 µM (≈ 8.32 µg/mL)
[7]
  MIC: 6.3 µM (≈ 8.32 µg/mL)

## CC[C@H](C)[C@H](NC(=O)[C@H](CCCCN)NC(=O)[C@H](CCCCN)NC(=O)[C@H](Cc1ccccc1)NC(=O)[C@H](CC(C)C)NC(=O)[C@H](CCCCN)NC(=O)[C@H](Cc1c[nH]c2ccccc12)NC(=O)[C@@H](N)CCCCN)C(=O)N1CCC[C@H]1C(=O)N[C@@H](Cc1ccccc1)C(=O)N[C@@H](CC(C)C)C(=O)N[C@@H](Cc1cnc[nH]1)C(=O)N[C@@H](CC(C)C)C(=O)N[C@@H](C)C(=O)N[C@@H](CCCCN)C(=O)N[C@@H](CCCCN)C(=O)N[C@@H](Cc1ccccc1)C(N)=O [KWKLFKKIPFLHLAKKF]
[8]
  MIC: 1.56 µM (≈ 3.39 µg/mL)
[1]
  MIC: 0.78 µM (≈ 1.69 µg/mL)
[9]
  MIC: 6.25 µM (≈ 13.6 µg/mL)
Proteus vulgaris
  MIC: 1.56 µM (≈ 3.39 µg/mL)
[3]
  MIC: 6.25 µM (≈ 13.6 µg/mL)
[10]
  MIC: 3.12 µM (≈ 6.79 µg/mL)

## CC[C@H](C)[C@H](N)C(=O)N[C@H](C(=O)N[C@@H](CCCCN)C(=O)N[C@@H](CCCCN)C(=O)N[C@H](C(=O)N[C@H](C(=O)N[C@@H](CCCCN)C(=O)N[C@@H](CCCCN)C(=O)N[C@H](C(=O)N[C@H](C(=O)N[C@@H](CCCCN)C(=O)N[C@@H](CCCCN)C(N)=O)[C@@H](C)CC)[C@@H](C)CC)[C@@H](C)CC)[C@@H](C)CC)[C@@H](C)CC [IIKKIIKKIIKK]
Bacillus subtilis 168
  MIC: 5 µM (≈ 7.33 µg/mL)
Candida albicans SC5314
  MIC: ≥ 800 µM
Candida krusei ATCC 6258
  MIC: ≥ 100 µM
[11]
  MIC: ≥ 1600 µM
[12]
  MIC: ≥ 100 µM
[13]
  MIC: 25 µM (≈ 36.6 µg/mL)
Escherichia coli BL21
  MIC: 30 µM (≈ 44 µg/mL)
Escherichia coli ESBL
  MIC: 20 µM (≈ 29.3 µg/mL)
Staphylococcus aureus
  MIC: 30 µM (≈ 44 µg/mL)

## CC[C@H](C)[C@H](NC(=O)[C@H](CCCCN)NC(=O)[C@H](CCCCN)NC(=O)[C@H](Cc1ccccc1)NC(=O)[C@H](CC(C)C)NC(=O)[C@H](CCCCN)NC(=O)[C@H](Cc1c[nH]c2ccccc12)NC(=O)[C@@H](N)CCCCN)C(=O)NCC(=O)N1CCC[C@H]1C(=O)NCC(=O)N[C@@H](CCCCN)C(=O)N[C@@H](Cc1ccccc1)C(=O)N[C@@H](CC(C)C)C(=O)N[C@@H](Cc1cnc[nH]1)C(=O)N[C@@H](CO)C(=O)N[C@@H](C)C(=O)N[C@@H](CCCCN)C(=O)N[C@@H](CCCCN)C(=O)N[C@@H](Cc1ccccc1)C(N)=O [KWKLFKKIGPGKFLHSAKKF]
[1]
  MIC: 0.78 µM (≈ 1.86 µg/mL)
[9]
  MIC: 3.12 µM (≈ 7.46 µg/mL)
[3]
  MIC: 0.78 µM (≈ 1.86 µg/mL)
[5]
  MIC: 0.78 µM (≈ 1.86 µg/mL)
[10]
  MIC: 3.12 µM (≈ 7.46 µg/mL)
[14]
  MIC: 0.78 µM (≈ 1.86 µg/mL)

## CC[C@H](C)[C@H](NC(=O)[C@@H](NC(=O)CNC(=O)[C@H](C)NC(=O)[C@H](CCSC)NC(=O)[C@@H](NC(=O)CNC(=O)[C@H](Cc1ccccc1)NC(=O)[C@@H](NC(=O)[C@H](CC(C)C)NC(=O)[C@@H](NC(=O)[C@H](CC(C)C)NC(=O)[C@H](CCCCN)NC(=O)[C@H](CCCN=C(N)N)NC(=O)[C@@H](N)CCCCN)[C@@H](C)O)C(C)C)C(C)C)C(C)C)C(=O)NCC(=O)N[C@H](C(=O)N[C@@H](CCCCN)C(=O)N[C@@H](CCCCN)C(=O)N[C@@H](CCCN=C(N)N)C(N)=O)[C@@H](C)O [KRKLTLVFGVMAGVIGTKKR]
Alternaria alternata
  MIC: ≥ 45.4 µM
Botrytis cinerea
  MIC: ≥ 45.4 µM
Cladosporium herbarum
  MIC: ≥ 45.4 µM
[15]
  MIC: 9.08 µM (≈ 20 µg/mL)
[16]
  MIC: 18.2 µM (≈ 40 µg/mL)
[17]
  MIC: 18.2 µM (≈ 40 µg/mL)
[18]
  MIC: 18.2 µM (≈ 40 µg/mL)
[19]
  MIC: 18.2 µM (≈ 40 µg/mL)
[20]
  MIC: 18.2 µM (≈ 40 µg/mL)

## CC[C@H](C)[C@H](NC(=O)[C@H](CCCCN)NC(=O)[C@H](CCCCN)NC(=O)[C@H](Cc1ccccc1)NC(=O)[C@H](CC(C)C)NC(=O)[C@H](CCCCN)NC(=O)[C@@H](N)CCCCN)C(=O)N[C@@H](CC(C)C)C(=O)N[C@@H](CCCCN)C(=O)N[C@@H](CCCCN)C(=O)N[C@@H](CC(C)C)C(N)=O [KKLFKKILKKL]
[21]
  MIC: 22.4 µM (≈ 31 µg/mL)
[22]
  MIC: 0.849 µM (≈ 1.18 µg/mL)
[23]
  MIC: ≥ 100 µM
[24]
  MIC: ≥ 70.7 µM

## CC[C@H](C)[C@H](NC(=O)[C@@H](NC(=O)[C@@H]1CCCN1C(=O)[C@@H](NC(=O)[C@@H](NC(=O)[C@H](CCCN=C(N)N)NC(=O)[C@@H]1CCCN1C(=O)[C@@H](NC(=O)[C@@H](NC(=O)[C@H](Cc1cnc[nH]1)NC(=O)[C@H](CCCCN)NC(=O)[C@H](C)NC(=O)[C@@H](NC(=O)[C@H](CO)NC(=O)CNC(=O)[C@H](CC(C)C)NC(=O)[C@@H](NC(=O)[C@H](CO)NC(=O)[C@H](Cc1ccccc1)NC(=O)[C@H](CC(C)C)NC(=O)CN)C(C)C)C(C)C)C(C)C)C(C)C)C(C)C)C(C)C)C(C)C)C(=O)N[C@@H](C)C(=O)N[C@@H](CCC(=O)O)C(=O)N[C@@H](Cc1cnc[nH]1)C(=O)N[C@@H](CC(C)C)C(N)=O [GLFSVLGSVAKHVVPRVVPVIAEHL]
Bacillus megaterium
  MIC: ≥ 100 µM
Enterobacter cloacae
  MIC: ≥ 50 µM
Escherichia coli B
  MIC: 25 µM (≈ 65.6 µg/mL)
Klebsiella pneumoniae
  MIC: 25 µM (≈ 65.6 µg/mL)
[25]
  MIC: ≥ 100 µM
Salmonella typhimurium
  MIC: ≥ 100 µM
Staphylococcus aureus
  MIC: > 100 µM
[26]
  MIC: ≥ 50 µM

## CC(C)C[C@H](NC(=O)[C@H](CC(C)C)NC(=O)[C@H](CCCCN)NC(=O)[C@@H](NC(=O)[C@H](CCCN=C(N)N)NC(=O)[C@H](CCCCN)NC(=O)[C@H](CCCCN)NC(=O)[C@@H](N)CCCN=C(N)N)C(C)C)C(=O)N[C@@H](CCCCN)C(=O)N[C@@H](CCCN=C(N)N)C(=O)N[C@@H](CC(C)C)C(=O)N[C@H](C(N)=O)C(C)C [RKKRVKLLKRLV]
[15]
  MIC: 6.51 µM (≈ 9.99 µg/mL)
[16]
  MIC: 6.51 µM (≈ 9.99 µg/mL)
[17]
  MIC: 0.325 µM (≈ 0.5 µg/mL)
[18]
  MIC: 1.63 µM (≈ 2.5 µg/mL)
[19]
  MIC: 3.25 µM (≈ 5 µg/mL)
[27]
  MIC: ≥ 62.5 µM
[20]
  MIC: 3.25 µM (≈ 5 µg/mL)
